The numbers were not newly measured in patent US20250262218A1, “COMPOSITIONS, FORMULATIONS AND METHODS FOR STIMULATING RESPIRATION” (Auros Pharma LLC, priority 2024, published 2025), which cites them from elsewhere.

Where two headings read alike, the source gives them in different places.

For `CCN1CC(CCN2CCOCC2)C(c2ccccc2)(c2ccccc2)C1=O` (stereo not shown) [doxapram, 1-ethyl-4-(2-morpholinoethyl)-3,3-diphenyl-2-pyrrolidinone], the solubility entry reads like this: (in alcohol) “sparingly soluble”; (in ether) “practically insoluble”; (in water) “soluble”. The stability entry (light and air) was “stable in light and air”.
